Values joined by “and” are separate entries in the source; they are usually repeats but may differ in a detail not shown here. Equal entries are not always repeated.
Assays:
[1] = tested on: Escherichia coli (ATCC 8739); experiment: Bioscreen growth rate in brain heart infusion broth with lactylate and polylysine; format: cell-based
[2] = tested on: Salmonella typhimurium (ATCC 13311); experiment: as above; format: cell-based
Protocol: (§1) The following cultures were used in a study: Escherichia coli serotype O157:H7 (ATCC 700728), Salmonella typhimurium (ATCC 13311) and Salmonella entiritidis (ATCC 13076). All cultures were transferred daily in screw-capped tubes containing 10 ml brain heart infusion broth. Cultures were incubated at 30° C. without agitation. Brain heart infusion broth was prepared with increasing amounts of lactylate and polylysine. The concentration range for the caprylic (C8) lactylate was as from 0 to 0.45% in 10 0.05% steps, for the capric (C10) lactylate was as from 0 to 0.09% in 10 0.01% steps, for the lauric (C12) lactylate was as from 0 to 0.009% in 10 0.001% steps and for the tetradecanoic (C14) lactylate was as from 0 to 0.009% in 10 0.001% steps. Lactylates were combined with polylysine. The concentration range for the polylysine was as from 0 to 0.0675% in 10 0.0075% steps. […] The pH of the media was adjusted to 6.1-6.2 with 1 N HCl or 1 N NaOH. Media were prepared in 10 ml quantities and sterilized by filtration. 300 μl of each medium was transferred to a panel of a sterile Bioscreen® honeycomb 100 well plate. Well plates were inoculated with 5 μl of a culture that was grown overnight in brain heart infusion broth using a sterile 5 μl repeating dispenser. Growth rates were determined with a Bioscreen® C that kinetically measures the development of turbidity by vertical photometry. The plates were incubated for 16-24 hours at 37° C., the optical density of the cultures was measured every 30 minutes at 420-580 nm using a wide band filter. The Bioscreen® measures at set time intervals the optical density of the cultures. […] The purpose of further data processing is to ascertain whether two […] act independently of each other or whether they stimulate each other in their inhibitory action (synergy) or cancel out each other inhibitory effect (antagonism). When a certain compound has no effect on an organism the specific growth rate of this organism (μ) can be expressed as a function (f) of the growth limiting substrate concentration (s) by for example the Monod equation, which reads: μ=μmax·s/(Ks+s), where μmax represents the maximum specific growth rate, s the standing concentration of the growth limiting substrate in the medium and Ks the substrate concentration where μ=0.5μmax. However, when the presence of an inhibitor P affects cell growth the function f for μ must be modified i.e. μ=f(s,p), where p represents the concentration of inhibitor P. Numerous studies of growth inhibition kinetics of bacteria have shown that many inhibitors behave as non-competitive inhibitors. This implies that only the maximum specific growth rate (μmax) value and not the affinity (Ks) is affected. Therefore the specific growth rate in the presence of inhibitor can be written as: μ=μi·s/(Ks+s), where μi is the maximal specific growth rate in the presence of a inhibitor P. The relationship between μi and μmax and the concentration of the inhibitor P was describes using the Logistic Dose Response equation, which reads: μi/μmax=1/(1+(p/p0.5)^b) (Jungbauer, A. (2001). The logistic dose response function: a robust fitting function for transition phenomena in life sciences. J. Clinical Ligand Assay 24: 270-274). In this equation p represents the concentration of inhibitor P and p0.5 the concentration of P where μi=0.5μmax; μmax is the maximum specific growth rate that is the specific growth rate in the absence of inhibitor P, b is a dimensionless quantity, which determines the relationship between μi and p. Combining the Monod and Logistic Dose Response equation it can be written as: μ=μmax(s/Ks+s)/(1+(p/p0.5)^b). In batch culture where s is usually many times higher than Ks this equation reduces to μ=μmax/(1+(p/p0.5)^b). When comparing different organisms grown under the same conditions, or the same organism grown under different conditions, it is more meaningful to use relative growth rate, rather than absolute growth rates as standards of comparison. […]

[3] = tested on: Salmonella entiritidis (ATCC 13076); experiment: as above; format: cell-based
Protocol: as §1

[4] = tested on: Salmonella Typhimurium ATCC 13311; experiment: Decontamination of inoculated chicken filets, surviving cell count; format: cell-based; details: for Salmonella Typhimurium on chicken filets: individual, 12° C.
Protocol: Salmonella Typhimurium ATCC 13311 and Escherichia coli O157:H7 ATCC 700728 were grown in sterile screw capped tubes containing Brain heart infusion broth for 18-24 hours at 30° C.
Chicken filets (150-200 g) were trimmed, vacuum packaged and stored at 4-7° C. Filets were subsequently sterilized by gamma-irradiation (average radiation dose: 12 kiloGray).
1 ml of an overnight culture of Salmonella Typhimurium in brain heart infusion both was diluted 1000 times with sterile 0.8% (w/v) NaCl and 0.1% (w/v) peptone. 0.5 ml of this diluted culture was transferred to one side of the filet. The inoculum was distributed by gently rubbing the entire surface of the filet. This was repeated for the other side of the filet. Inoculation was carried out at 6° C. Inoculated filets were rested for 60-120 min at 6° C. to allow attachment of the cells.
Chicken filets were briefly dipped and completely submersed in 1 l of a solution containing the appropriate formulation and then transferred to 400 ml Bagfilter® lateral filter bags (Interscience, St Nom, France) containing 5 ml of the appropriate formulation. Bags were vacuum-sealed and incubated at 12° C. for up to 7 days until further analysis. Time zero samples were plated within 30 min after dipping.
Surviving Salmonella Typhimurium on chicken filets were counted as follows: a sealed bag was opened and to this was added 2 times the net weight sterile dilution fluid ([…] NaCl and 0.1% (w/v) bacteriological peptone). Duplicate filets were homogenized for 1 min. in a Bagmixer® 400 paddle labblender (Interscience, St Nom, France). 50 μl of the homogenates or dilutions thereof were plated on duplicate Salmonella chromogenic agar plates (CM1007) with cefsulodin, novobiocin supplement (SR0194) (Oxoid, Basingstoke, United Kingdom) using an Eddyjet type 1.23 spiral plater (IUL Instruments, Barcelona, Spain). Plates were incubated for 24-48 hours at 30° C. and then counted. Salmonella numbers were expressed as log10 colony forming units per ml homogenate.
The compositions of the formulations that were studied are shown in Table 2. ε-Polylysine and lactylates were dissolved in demineralised water and sterilized for 20 min at 120° C.

[5] = tested on: Escherichia coli serotype O157:H7 (ATCC 700728); experiment: Bioscreen growth rate in brain heart infusion broth with lactylate and polylysine; format: cell-based
Protocol: as §1

[6] = tested on: Candida albicans; details: EP 1000542; cited from earlier work
[7] = tested on: Enterococcus faecalis; details: EP 1000542; cited from earlier work
[8] = 0.0225% (w/w) in broth, pH 6.1-6.2, 37° C.
[9] = 0.45% (w/w) in broth, pH 6.1-6.2, 37° C.

poly(imino(2-amino-1-oxo-1,6-hexanediyl)) [ε-polylysine]
Observed Relative Growth Rate [1, 8]: 0.4935 and 0.7370 and 0.4395 and 0.68
Observed Relative Growth Rate [2, 8]: 0.943 and 0.9725 and 0.9520
Observed Relative Growth Rate [3, 8]: 0.9645 and 0.971 and 0.9035
Salmonella Typhimurium on chicken filets ([4]; 0.1% (w/v), day 0): 3.04 log10 colony forming units (CFU)/ml
Salmonella Typhimurium on chicken filets ([4]; 0.1% (w/v), day 1): 2.04 log10 colony forming units (CFU)/ml
Salmonella Typhimurium on chicken filets ([4]; 0.1% (w/v), day 2): 2.15 log10 colony forming units (CFU)/ml
Salmonella Typhimurium on chicken filets ([4]; 0.1% (w/v), day 5): 4.04 log10 colony forming units (CFU)/ml
Salmonella Typhimurium on chicken filets ([4]; 0.1% (w/v), day 6): 4.26 log10 colony forming units (CFU)/ml
Salmonella Typhimurium on chicken filets ([4]; 0.1% (w/v), day 7): 5.35 log10 colony forming units (CFU)/ml
reduction in numbers ([4]; single addition, after one day of incubation): 2 log10

CCCCCCCC(=O)OC(C)C(=O)[O-].[Na+] (centres unmarked) [C8-lactylate, sodium salt of octanoyllactylate]
Observed Relative Growth Rate [1, 9]: 0.5625
Observed Relative Growth Rate [5, 9]: 0.657
Observed Relative Growth Rate [2, 9]: 0.4763
Observed Relative Growth Rate [3, 9]: 0.58
Salmonella Typhimurium on chicken filets ([4]; 0.2% (w/v), day 0): 3.85 log10 colony forming units (CFU)/ml
Salmonella Typhimurium on chicken filets ([4]; 0.2% (w/v), day 1): 4.1 log10 colony forming units (CFU)/ml
Salmonella Typhimurium on chicken filets ([4]; 0.2% (w/v), day 2): 4.29 log10 colony forming units (CFU)/ml
Salmonella Typhimurium on chicken filets ([4]; 0.2% (w/v), day 5): 6.27 log10 colony forming units (CFU)/ml
Salmonella Typhimurium on chicken filets ([4]; 0.2% (w/v), day 6): 7.35 log10 colony forming units (CFU)/ml
Salmonella Typhimurium on chicken filets ([4]; 0.2% (w/v), day 7): 7.42 log10 colony forming units (CFU)/ml

CCCCCCCCCC(=O)OC(C)C(=O)O (centres unmarked) [C10-lactylate, decanoyllactylate]
Observed Relative Growth Rate ([1]; 0.09% (w/w) in broth): 0.721
Observed Relative Growth Rate ([5]; 0.09% (w/w) in broth): 0.766
Observed Relative Growth Rate ([2]; 0.09% (w/w) in broth): 0.904
Observed Relative Growth Rate ([3]; 0.09% (w/w) in broth): 0.912
Salmonella Typhimurium on chicken filets ([4]; 0.05% (w/v), day 0): 3.75 log10 colony forming units (CFU)/ml
Salmonella Typhimurium on chicken filets ([4]; 0.05% (w/v), day 1): 3.95 log10 colony forming units (CFU)/ml
Salmonella Typhimurium on chicken filets ([4]; 0.05% (w/v), day 2): 4.45 log10 colony forming units (CFU)/ml
Salmonella Typhimurium on chicken filets ([4]; 0.05% (w/v), day 5): 6.87 log10 colony forming units (CFU)/ml
Salmonella Typhimurium on chicken filets ([4]; 0.05% (w/v), day 6): 6.83 log10 colony forming units (CFU)/ml
Salmonella Typhimurium on chicken filets ([4]; 0.05% (w/v), day 7): 7.52 log10 colony forming units (CFU)/ml

CCCCCCCCCC(=O)OC(C)C(=O)OC(C)C(=O)[O-].[Na+] (centres unmarked) [sodium salt of capryl-lactyl-lactylate]
antimicrobial activity [6]: some antimicrobial activity
antimicrobial activity [7]: some antimicrobial activity

Source: patent publication US7973006B2, “Antibacterial agent based on fatty acid esters of hydroxy carboxylic acid acids” (Purac Biochem B.V., priority 2007, dated 2011)
